Residue numbers refer to the chain shown, from its start. Where two headings read alike, the source gives them in different places.
Columns and labels:
human M1 = molecular target: T1, human M1 (Homo sapiens, UniProt P11229); assay: M1 PAM assay (FLIPR intracellular calcium, CHO human M1); assay type: cell-based
T1 construct: expressed in transfected cells; host or cells: CHO cells
T1 sequence (P11229 1-460): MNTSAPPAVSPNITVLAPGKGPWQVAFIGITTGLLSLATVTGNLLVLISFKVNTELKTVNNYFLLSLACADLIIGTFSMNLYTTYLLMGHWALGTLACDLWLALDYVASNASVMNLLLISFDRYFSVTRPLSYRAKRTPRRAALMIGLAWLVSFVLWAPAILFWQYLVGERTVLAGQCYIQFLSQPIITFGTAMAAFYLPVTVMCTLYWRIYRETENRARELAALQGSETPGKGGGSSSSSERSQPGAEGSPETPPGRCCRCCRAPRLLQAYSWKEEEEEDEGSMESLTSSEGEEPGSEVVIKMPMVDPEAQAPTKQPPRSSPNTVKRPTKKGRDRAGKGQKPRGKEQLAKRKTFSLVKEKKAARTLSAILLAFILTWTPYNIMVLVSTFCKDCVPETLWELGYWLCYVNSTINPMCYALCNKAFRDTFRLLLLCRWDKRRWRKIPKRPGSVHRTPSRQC
Description: The assay study the effect of several concentrations of test compounds on basal or acetylcholine-stimulated Ca^2+ levels using FLIPR. CHO human M1 are plated the day before the experiments at 2×10^5 cells/ml in PDL BioCoat 96 well black/clear plate (Becton 35 4640). The cells are grown at 37° C. and 5% CO2 in the following medium: F12 Nut Mix (Gibco 21765), 10% FCS heat inactivated (GIBCO 16000-044), 1% Pen Strep (Gibco, 15140) and 200 μg/ml Geneticin (Gibco 11811). On the day of the experiment, the medium was removed and replaced by 100 μl of dye loading buffer containing Hanks Balanced Salt solution (HBSS, 14065-049, Gibco) with 20 mM HEPES (Gibco 15630-056), 2 mM Probenicid (Sigma P8761), […] (Molecular Probes F-14202), 10% Pluronic acid Molecular Probes P-3000) pH=7.4 and incubated at 37° C. After 60 minutes extracellular dye was removed and the cells were washed five times with FLIPR buffer containing HBSS (Gibco 14065-049) with 20 mM HEPES (Gibco, 15630-056), 2 mM Probenicid (Sigma P8761) pre-warmed at 37° C. using and Ebml cell washer leaving 100 μl of FLIPR buffer in each well. The cell plate and the diluted compounds (1% DMSO final concentration) are placed on the platform of the FLIPR and the door closed. A signal test to check background fluorescence and basal fluorescence signal is performed. Laser intensity is adjusted if necessary. Two minutes preincubation with the diluted test compounds is provide to determine any agonist activity on the M1 receptor by comparison to 30 nM Acetylcholine control. In order to determine any modulator activity the diluted compounds were added to cells and after two minutes preincubation, the EC20 of acetylcholine is added followed by another two minutes preincubation before the measurement of intracellular Ca^2+ with a FLIPR (Molecular Devices).

M1 receptor = molecular target: T2, M1 receptor (Rattus norvegicus, UniProt P08482); assay: M1 PAM assay (FLIPR intracellular calcium), rat; assay type: cell-based
T2 construct: expressed in transfected cells
T2 sequence (P08482 1-460): T1 sequence (P11229 1-460) with A5V, T254S, P309S, R320K, A337G, I413V

[1] = human M1 in CHO cells, modulator activity with EC20 of acetylcholine, FLIPR Ca2+, read-out: EC50 h PAM
[2] = rat, modulator activity with EC20 of acetylcholine, FLIPR Ca2+, read-out: EC50 rat PAM

| SMILES | EC50 (human M1; [1]) [nM] | EC50 (M1 receptor; [2]) [nM] | EC50 (human M1) [nM] | EC50 (M1 receptor) [nM] |
| --- | --- | --- | --- | --- |
| Cn1cc(-c2ccc(Cn3cc(C(=O)N[C@H](CO)C(C)(C)C)c4ncccc43)c(F)c2)cn1 [Example 27, 1-[2-Fluoro-4-(1-methyl-1H-pyrazol-4-yl)-benzyl]-1H-pyrrolo[3,2-b]pyridine-3-carboxylic acid ((S)-1-hydroxymethyl-2,2-dimethyl-propyl)-amide] | 126 | 355 |  |  |
| Cn1cc(-c2ccc(Cn3cc(C(=O)NC4CCCCC4)c4ncccc43)c(F)c2)cn1 [Example 28, N-cyclohexyl-1-(2-fluoro-4-(1-methyl-1H-pyrazol-4-yl)benzyl)-1H-pyrrolo[3,2-b]pyridine-3-carboxamide] |  |  | 283 | 521 |
| Cn1cc(-c2ccc(Cn3cc(C(=O)Nc4ncccc4CO)c4ncccc43)c(F)c2)cn1 [Example 30, 1-[2-Fluoro-4-(1-methyl-1H-pyrazol-4-yl)-benzyl]-1H-pyrrolo[3,2-b]pyridine-3-carboxylic acid (3-hydroxymethyl-pyridin-2-yl)-amide] |  |  | 82.4 | 210 |
| Cn1cc(-c2ccc(Cn3cc(C(=O)N[C@H](CO)c4ccccc4)c4ncccc43)c(F)c2)cn1 [Example 32, 1-[2-Fluoro-4-(1-methyl-1H-pyrazol-4-yl)-benzyl]-1H-pyrrolo[3,2-b]pyridine-3-carboxylic acid ((S)-2-hydroxy-1-phenyl-ethyl)-amide] |  |  | 88.7 | 277 |
| Cn1cc(-c2ccc(Cn3cc(C(=O)NC[C@@H](O)c4ccccc4)c4ncccc43)c(F)c2)cn1 [Example 34, 1-[2-Fluoro-4-(1-methyl-1H-pyrazol-4-yl)-benzyl]-1H-pyrrolo[3,2-b]pyridine-3-carboxylic acid ((S)-2-hydroxy-2-phenyl-ethyl)-amide] | 120 | 494 |  |  |
| Cn1cc(-c2ccc(Cn3cc(C(=O)Nc4ncccc4O)c4ncccc43)c(F)c2)cn1 [Example 36, 1-[2-Fluoro-4-(1-methyl-1H-pyrazol-4-yl)-benzyl]-1H-pyrrolo[3,2-b]pyridine-3-carboxylic acid (3-hydroxy-pyridin-2-yl)-amide] | 109 | 314 |  |  |
| Cn1cc(-c2ccc(Cn3cc(C(=O)N[C@H]4COCC[C@@H]4O)c4ncccc43)c(F)c2)cn1 [Example 41, 1-[[2-fluoro-4-(1-methylpyrazol-4-yl)phenyl]methyl]-N-[(3S,4S)-4-hydroxyoxan-3-yl]pyrrolo[3,2-b]pyridine-3-carboxamide] | 30.4 | 51 |  |  |
| Cc1ccc(Cn2cc(C(=O)N[C@H]3CCCC[C@@H]3O)c3ncccc32)cc1 [Example 43, N-((1S,2S)-2-hydroxycyclohexyl)-1-(4-methylbenzyl)-1H-pyrrolo[3,2-b]pyridine-3-carboxamide] |  |  | 207 | 611 |
| COc1ccc(Cn2cc(C(=O)N[C@H]3CCCC[C@@H]3O)c3ncccc32)cc1F [Example 44, 1-(3-fluoro-4-methoxybenzyl)-N-((1S,2S)-2-hydroxycyclohexyl)-1H-pyrrolo[3,2-b]pyridine-3-carboxamide] |  |  | 127 | 598 |
| Cc1ccc(Cn2cc(C(=O)N[C@H]3CCCC[C@@H]3O)c3ncccc32)cc1F [Example 46, 1-(3-fluoro-4-methylbenzyl)-N-((1S,2S)-2-hydroxycyclohexyl)-1H-pyrrolo[3,2-b]pyridine-3-carboxamide] |  |  | 257 | 444 |
| COc1ccc(Cn2cc(C(=O)N[C@H]3CCCC[C@@H]3O)c3ncccc32)cc1 [Example 47, N-((1S,2S)-2-hydroxycyclohexyl)-1-(4-methoxybenzyl)-1H-pyrrolo[3,2-b]pyridine-3-carboxamide] |  |  | 163 | 217 |
| O=C(N[C@H]1CCCC[C@@H]1O)c1cn(Cc2ccc(C(F)(F)F)nc2)c2cccnc12 [Example 48, N-((1S,2S)-2-hydroxycyclohexyl)-1-((6-(trifluoromethyl)pyridin-3-yl)methyl)-1H-pyrrolo[3,2-b]pyridine-3-carboxamide] |  |  | 1770 | 422 |
| O=C(N[C@H]1CCCC[C@@H]1O)c1cn(Cc2ccc(-c3ccccc3)cc2)c2cccnc12 [Example 49, 1-(biphenyl-4-ylmethyl)-N-((1S,2S)-2-hydroxycyclohexyl)-1H-pyrrolo[3,2-b]pyridine-3-carboxamide] |  |  | 300 | 512 |
| Cn1ncc2cc(Cn3cc(C(=O)N[C@H]4CCCC[C@@H]4O)c4ncccc43)ccc21 [Example 52, N-((1S,2S)-2-hydroxycyclohexyl)-1-((1-methyl-1H-indazol-5-yl)methyl)-1H-pyrrolo[3,2-b]pyridine-3-carboxamide] |  |  | 71.5 | 163 |
| Cn1cc(-c2ccc(Cn3cc(C(=O)N[C@H]4CCCC[C@@H]4O)c4ncccc43)cc2)cn1 [Example 55, N-((1S,2S)-2-hydroxycyclohexyl)-1-(4-(1-methyl-1H-pyrazol-4-yl)benzyl)-1H-pyrrolo[3,2-b]pyridine-3-carboxamide] |  |  | 11.1 | 13.9 |
| Cn1cc(-c2ccc(Cn3cc(C(=O)N[C@H]4CCCC[C@@H]4O)c4ncccc43)cn2)cn1 [Example 56, N-((1S,2S)-2-hydroxycyclohexyl)-1-((6-(1-methyl-1H-pyrazol-4-yl)pyridin-3-yl)methyl)-1H-pyrrolo[3,2-b]pyridine-3-carboxamide] |  |  | 34.9 | 71 |
| O=C(N[C@H]1CCCC[C@@H]1O)c1cn(Cc2ccc(-c3nccs3)cc2)c2cccnc12 [Example 60, N-((1S,2S)-2-hydroxycyclohexyl)-1-(4-(thiazol-2-yl)benzyl)-1H-pyrrolo[3,2-b]pyridine-3-carboxamide] |  |  | 38.2 | 126 |
| CNC(=O)c1ccc(Cn2cc(C(=O)N[C@H]3CCCC[C@@H]3O)c3ncccc32)cc1 [Example 61, N-((1S,2S)-2-hydroxycyclohexyl)-1-(4-(methylcarbamoyl)benzyl)-1H-pyrrolo[3,2-b]pyridine-3-carboxamide] |  |  | 9.1 | 18 |
| O=C(NC1CCOCC1)c1cn(Cc2ccc3[nH]ncc3c2)c2cccnc12 [Example 62] |  |  | 428 | 325 |
| Cn1cc(-c2ccc(Cn3cc(C(=O)NCc4cccnc4)c4ncccc43)c(F)c2)cn1 [Example 64] |  |  | 261 | 1060 |
| Cn1cc(-c2ccc(Cn3cc(C(=O)NCC4(O)CC4)c4ncccc43)c(F)c2)cn1 [Example 65, 1-(2-fluoro-4-(1-methyl-1H-pyrazol-4-yl)benzyl)-N-((1-hydroxycyclopropyl)methyl)-1H-pyrrolo[3,2-b]pyridine-3-carboxamide] | 315 | 1390 |  |  |

Reference: US9932335B2 (priority 2013, dated 2018)
